{"source": "patent US5552421A", "about": "“Leukotriene biosynthesis inhibitors” (Boehringer Ingelheim Pharmaceuticals, Inc., priority 1995, dated 1996)", "key": {"[1]": {"system": "LTB4 biosynthesis in human polymorphonuclear leukocytes (PMNs)", "test": "Inhibition of LTB4 biosynthesis in human polymorphonuclear leukocytes (PMNs)", "type": "cell-based", "experimental": "Inhibition of LTB4, biosynthesis in human polymorphonuclear leukocytes (PMNs)\nThe inhibition of leukotriene biosynthesis is measured by determining whether and to what extent test compounds can inhibit LTB4 production from endogenous arachidonic acid in human peripheral blood leukocytes.\nTo 48-well tissue culture plates was added a solution of the test compound followed by addition of human polymorphonuclear leukocytes isolated from peripheral blood at a density of 1.5×10^6 cells/well. Culture plates were preincubated for fifteen minutes with shaking at 28° C. Cells were stimulated with calcium ionophore A23187 at a final concentration of 2.5 μM for an additional ten minutes. The reaction was terminated by the addition of an EGTA solution (10 mM final concentration)followed by centrifugation at 1500 rpm at 10° C. Supernatants were stored at -70° C. LTB4 levels were determined by RIA using a commercially available kit. Nonlinear regression analysis was used to calculate. IC50 values.\nThe following tables show % inhibition of LTB4 biosynthesis by compounds of the invention at test concentrations indicated, with the determined IC50 shown in μM."}, "[2]": {"system": "leukotriene component of antigen-induced bronchoconstriction", "test": "Antigen-Induced Bronchoconstriction in Guinea Pigs", "type": "in vivo, guinea pig (male Hartley)", "settings": "aerosol, vs placebo treated controls", "from_the_text": "Antigen-Induced Bronchoconstriction in Guinea Pigs\nThis model measures the ability of a compound to block the leukotriene component of antigen-induced bronchoconstriction. Male Hartley guinea pigs are actively sensitized to ovalbumin, pretreated with mepyramine and indomethacin (to block the histamine and cyclooxygenase metabolite components respectively), and test compound (by aerosol administration). The guinea pigs are challenged with antigen (inhaled ovalbumin). Pulmonary function is measured by oscillatory mechanics as described by W. W. Wolyniec et al. (Agents and Actions 1991, 34, 1/2, 73). Results are expressed as percent inhibition of bronchoconstriction (resistance) in the test compound treated guinea pigs compared to placebo treated controls.\n*Refers to amount of test compound inhaled by gunea pig. Compounds\nadministered by aerosolized freon/ethanol solution from metered dose"}, "[3]": {"settings": "Homo sapiens, Leukocyte, Table 3, Phenyl, values with <: see footnote d, Table 1"}, "[4]": {"settings": "Homo sapiens, Leukocyte, Table 4, Pyridyl, values with <: see footnote d, Table 1"}, "[5]": {"settings": "Homo sapiens, Leukocyte, Table 11, Thiazolopyridines, values with <: see footnote d, Table 1"}, "[6]": {"settings": "Leukocyte, Table 1, Esters, LTB4, A23187-stimulated human PMNs, values with < (footnote d): greater than 50% (504 [sic]) inhibition at this concentration, IC50 not characterized further"}, "[7]": {"settings": "Homo sapiens, Leukocyte, Table 7, Ketones"}, "[8]": {"settings": "Homo sapiens, Leukocyte, Table 8, Miscellaneous Acyclic, values with <: see footnote d, Table 1"}, "[9]": {"settings": "Homo sapiens, Leukocyte, Table 2, Amides, values with <: see footnote d, Tables 1 and 1A"}}, "data": [{"smiles": "COc1ccc(C(CC2CCCCC2)Nc2nc3ccccc3o2)cc1", "note": "(centres unmarked) [Compound 56]", "values": [{"measurement": "IC50", "setting": "[1]; [3]", "value": 550, "unit": "nM"}, {"measurement": "% Inhibition of bronchoconstriction (resistance)", "setting": "[2]; 95 micrograms inhaled", "value": 43, "unit": "%"}]}, {"smiles": "Cc1ccc2oc(NC(CC3CCCCC3)c3ccccn3)nc2n1", "note": "(centres unmarked) [Compound 165]", "values": [{"measurement": "IC50", "setting": "[1]; Homo sapiens, Leukocyte, Table 10, Oxazolopyridines, values with <: see footnote d, Table 1", "value": 26, "unit": "nM"}, {"measurement": "% Inhibition of bronchoconstriction (resistance)", "setting": "[2]; 5.6 micrograms inhaled", "value": 0, "unit": "%"}, {"measurement": "% Inhibition of bronchoconstriction (resistance)", "setting": "[2]; 28 micrograms inhaled", "value": 64, "unit": "%"}, {"measurement": "% Inhibition of bronchoconstriction (resistance)", "setting": "[2]; 274 micrograms inhaled", "value": 84, "unit": "%"}]}, {"smiles": "Cc1ccc2oc(NC(CC3CCCCC3)c3ccccn3)nc2c1", "note": "(centres unmarked) [Compound 81]", "values": [{"measurement": "IC50", "setting": "[1]; [4]", "value": 3.1, "unit": "nM"}, {"measurement": "% Inhibition of bronchoconstriction (resistance)", "setting": "[2]; 2.8 micrograms inhaled", "value": 61, "unit": "%"}, {"measurement": "% Inhibition of bronchoconstriction (resistance)", "setting": "[2]; 28 micrograms inhaled", "value": 64, "unit": "%"}, {"measurement": "% Inhibition of bronchoconstriction (resistance)", "setting": "[2]; 308 micrograms inhaled", "value": 64, "unit": "%"}]}, {"smiles": "c1ccc(C(CC2CCCCC2)Nc2nc3ccccc3o2)cc1", "note": "(centres unmarked) [Compound 51, 2-(2-Cyclohexyl-1-phenyl]ethylaminobenzoxazole]", "values": [{"measurement": "IC50", "setting": "[1]; [3]", "value": 6.9, "unit": "nM"}, {"measurement": "% Inhibition of bronchoconstriction (resistance)", "setting": "[2]; 274 micrograms inhaled", "value": 86, "unit": "%"}]}, {"smiles": "Ic1ccc2oc(NC(CC3CCCCC3)c3ccccc3)nc2c1", "note": "(centres unmarked) [Compound 59]", "values": [{"measurement": "IC50", "setting": "[1]; [3]", "value": 13, "unit": "nM"}]}, {"smiles": "Cc1cnc2nc(NC(CC3CCCCC3)c3ccccn3)sc2c1", "note": "(centres unmarked) [Compound 184]", "values": [{"measurement": "IC50", "setting": "[1]; [5]", "value": 31, "unit": "nM"}]}, {"smiles": "Cc1ccc2oc(NC(CC3CCCCC3)c3ccccn3)nc2n1", "note": "(single isomer, unassigned) [Compound 167]", "values": [{"measurement": "IC50", "setting": "[1]; Table 10, Oxazolopyridines, values with <: see footnote d, Table 1", "value": 170, "unit": "nM"}]}, {"smiles": "CCOC(=O)[C@H](Cc1ccccc1)Nc1nc2ccc(C(C)C)cc2s1", "note": "[Compound 6]", "values": [{"measurement": "IC50", "setting": "[1]; [6]", "value": 250, "unit": "nM"}]}, {"smiles": "CCOC(=O)C(Cc1cccnc1)Nc1nc2cc(C(C)C)ccc2o1", "note": "(centres unmarked) [Compound 30]", "values": [{"measurement": "IC50", "setting": "[1]; [6]", "value": 190, "unit": "nM"}]}, {"smiles": "Fc1ccc(CC(Nc2nc3ccc(C(F)(F)F)cc3s2)c2ccccn2)cc1", "note": "(centres unmarked) [Compound 106]", "values": [{"measurement": "IC50", "setting": "[1]; [4]", "value": "< 1000", "unit": "nM"}]}, {"smiles": "CCOC(=O)[C@H](Cc1ccccc1)Nc1nc2cc(C(C)C)ccc2o1", "note": "[Compound 19]", "values": [{"measurement": "IC50", "setting": "[1]; [6]", "value": 0.52, "unit": "nM"}]}, {"smiles": "Cc1ccc2oc(N[C@@H](CC3CCCCC3)C(=O)c3nccn3C)nc2c1", "note": "[Compound 132]", "values": [{"measurement": "IC50", "setting": "[1]; [7]", "value": 23, "unit": "nM"}]}, {"smiles": "CC(=O)[C@H](Cc1ccccc1)Nc1nc2ccc(C(C)C)cc2s1", "note": "[Compound 128, 3-[(6-Isopropylbenzothiazol-2-yl)amino]-4-phenylbutan-2-one]", "values": [{"measurement": "IC50", "setting": "[1]; [7]", "value": 350, "unit": "nM"}]}, {"smiles": "Cc1ccc2oc(NC(CC3CCCCC3)c3cccnc3)nc2c1", "note": "(single isomer, unassigned) [Compound 90]", "values": [{"measurement": "IC50", "setting": "[1]; Table 4, Pyridyl, values with <: see footnote d, Table 1", "value": "< 1000", "unit": "nM"}]}, {"smiles": "CC(C)(C)OC(=O)[C@H](Cc1ccccc1)Nc1nc2ccccc2s1", "note": "[Compound 13]", "values": [{"measurement": "IC50", "setting": "[1]; [6]", "value": 730, "unit": "nM"}]}, {"smiles": "Cc1cccc(C(CC2CCCCC2)Nc2nc3ccccc3o2)c1", "note": "(centres unmarked) [Compound 57]", "values": [{"measurement": "IC50", "setting": "[1]; [3]", "value": 300, "unit": "nM"}]}, {"smiles": "CC(C)c1ccc2oc(N[C@H](CNS(=O)(=O)N(C)C)Cc3ccccc3)nc2c1", "note": "[Compound 152]", "values": [{"measurement": "IC50", "setting": "[1]; [8]", "value": "< 100", "unit": "nM"}]}, {"smiles": "COCC(Cc1csc(C)n1)Nc1nc2cc(C(C)C)ccc2o1", "note": "(centres unmarked) [Compound 141]", "values": [{"measurement": "IC50", "setting": "[1]; [8]", "value": "< 300", "unit": "nM"}]}, {"smiles": "CNC(=O)[C@H](CC1CCCCC1)Nc1nc2cc(C)ccc2o1", "note": "[Compound 44, L-N-(5-Methylbenzoxazol-2-yl)cyclohexylalanine-N'-methylamide]", "values": [{"measurement": "IC50", "setting": "[1]; [9]", "value": 72, "unit": "nM"}]}, {"smiles": "Fc1ccc(C(CC2CCCCC2)Nc2nc3ccccc3o2)cc1", "note": "(centres unmarked) [Compound 71]", "values": [{"measurement": "IC50", "setting": "[1]; [3]", "value": 170, "unit": "nM"}]}, {"smiles": "CON(C)C(=O)[C@H](Cc1ccccc1)Nc1nc2ccccc2o1", "note": "[Compound 43]", "values": [{"measurement": "IC50", "setting": "[1]; [9]", "value": "< 1000", "unit": "nM"}]}, {"smiles": "CC(=O)NC[C@H](Cc1ccccc1)Nc1nc2cc(C(C)C)ccc2o1", "note": "[Compound 151]", "values": [{"measurement": "IC50", "setting": "[1]; [8]", "value": "< 100", "unit": "nM"}]}, {"smiles": "Clc1ccccc1C(CC1CCCCC1)Nc1nc2ccccc2o1", "note": "(centres unmarked) [Compound 58]", "values": [{"measurement": "IC50", "setting": "[1]; [3]", "value": 80, "unit": "nM"}]}, {"smiles": "Fc1ccc(CC(Nc2nc3cc(Cl)ccc3s2)c2ccccn2)cc1", "note": "(centres unmarked) [Compound 96]", "values": [{"measurement": "IC50", "setting": "[1]; [4]", "value": 27, "unit": "nM"}]}, {"smiles": "Clc1cnc2nc(NC(CC3CCCCC3)c3ccccn3)sc2c1", "note": "(centres unmarked) [Compound 188]", "values": [{"measurement": "IC50", "setting": "[1]; [5]", "value": 3.9, "unit": "nM"}]}, {"smiles": "O=[N+]([O-])c1ccc2nc(NC(CC3CCCCC3)c3cccnc3)oc2c1", "note": "(centres unmarked) [Compound 84]", "values": [{"measurement": "IC50", "setting": "[1]; [4]", "value": 35, "unit": "nM"}]}, {"smiles": "Cc1nc2nc(NC(CC3CCCCC3)c3cccnc3)sc2cc1Br", "note": "(centres unmarked) [Compound 186]", "values": [{"measurement": "IC50", "setting": "[1]; [5]", "value": 21, "unit": "nM"}]}, {"smiles": "NC(=O)c1ccc2oc(NC(CC3CCCCC3)c3ccccc3)nc2c1", "note": "(centres unmarked) [Compound 64]", "values": [{"measurement": "IC50", "setting": "[1]; [3]", "value": "< 1000", "unit": "nM"}]}, {"smiles": "CCOC(=O)C(Cc1csc(C)n1)Nc1nc2cc(C(C)C)ccc2o1", "note": "(centres unmarked) [Compound 33]", "values": [{"measurement": "IC50", "setting": "[1]; [6]", "value": "< 30", "unit": "nM"}]}, {"smiles": "CCCOCC(Cc1ccc(F)cc1)Nc1nc2cc(C(C)C)ccc2o1", "note": "(centres unmarked) [Compound 138]", "values": [{"measurement": "IC50", "setting": "[1]; [8]", "value": "< 300", "unit": "nM"}]}]}
